The values that follow come from PMC5506883 (Heliyon, 2017).

Experiment [1] addresses Horse butyrylcholinesterase (EC 3.1.1.8) (Equus caballus, UniProt P81908). Briefly: Anticholinesterase assay. Conditions: Butyrylcholinesterase inhibition activity IC50 μM ± SEM, mean of three experiments with SEM; 15 min at 25 °C, pH 8.0. The format is biochemical.
In a further experiment the test system is xanthine oxidase. Conditions: ref Sheu and Chiang, 1997; cited from earlier work.

Horse butyrylcholinesterase (EC 3.1.1.8), sequence (P81908 whole entry): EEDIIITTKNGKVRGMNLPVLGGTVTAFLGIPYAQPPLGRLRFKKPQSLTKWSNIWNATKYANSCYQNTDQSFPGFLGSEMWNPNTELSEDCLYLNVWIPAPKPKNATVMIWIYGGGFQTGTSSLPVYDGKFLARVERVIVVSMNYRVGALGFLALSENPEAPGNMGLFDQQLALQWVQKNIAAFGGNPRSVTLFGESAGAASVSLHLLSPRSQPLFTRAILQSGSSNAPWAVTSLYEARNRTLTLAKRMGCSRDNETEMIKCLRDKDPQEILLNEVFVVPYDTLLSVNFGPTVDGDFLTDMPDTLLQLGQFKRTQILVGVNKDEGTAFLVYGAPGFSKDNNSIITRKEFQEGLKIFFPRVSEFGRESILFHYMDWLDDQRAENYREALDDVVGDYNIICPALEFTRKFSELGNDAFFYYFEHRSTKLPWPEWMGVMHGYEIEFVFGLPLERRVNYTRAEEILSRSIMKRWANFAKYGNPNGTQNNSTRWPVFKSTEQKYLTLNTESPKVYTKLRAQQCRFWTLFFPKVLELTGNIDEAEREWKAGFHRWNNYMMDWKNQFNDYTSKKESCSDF

As for `Oc1ccc2c(O)c3ccccc3cc2c1O` [Compound 1, anthracene-1,2,10-triol], in experiment [1], the IC50 came to 89.3 ± 0.21 µM. Further, in the experiment with xanthine oxidase, the “xanthine oxidase inhibitory activity at concentration” value is 68.35 µM.

The IC50 is the concentration at which inhibition is half-maximal.
